Test results published in PMC4472506 (Nature chemical biology, 2015).

Tests used:
BTK [1] = target: T1, BTK (Homo sapiens, UniProt Q06187); assay: Cellular durability
Oral bioavailability = settings: in vivo
ITK = target: T2, ITK (Homo sapiens, UniProt Q08881); assay: Enzymatic IC50 assay; type: biochemical
T2 sequence (Q08881 1-620): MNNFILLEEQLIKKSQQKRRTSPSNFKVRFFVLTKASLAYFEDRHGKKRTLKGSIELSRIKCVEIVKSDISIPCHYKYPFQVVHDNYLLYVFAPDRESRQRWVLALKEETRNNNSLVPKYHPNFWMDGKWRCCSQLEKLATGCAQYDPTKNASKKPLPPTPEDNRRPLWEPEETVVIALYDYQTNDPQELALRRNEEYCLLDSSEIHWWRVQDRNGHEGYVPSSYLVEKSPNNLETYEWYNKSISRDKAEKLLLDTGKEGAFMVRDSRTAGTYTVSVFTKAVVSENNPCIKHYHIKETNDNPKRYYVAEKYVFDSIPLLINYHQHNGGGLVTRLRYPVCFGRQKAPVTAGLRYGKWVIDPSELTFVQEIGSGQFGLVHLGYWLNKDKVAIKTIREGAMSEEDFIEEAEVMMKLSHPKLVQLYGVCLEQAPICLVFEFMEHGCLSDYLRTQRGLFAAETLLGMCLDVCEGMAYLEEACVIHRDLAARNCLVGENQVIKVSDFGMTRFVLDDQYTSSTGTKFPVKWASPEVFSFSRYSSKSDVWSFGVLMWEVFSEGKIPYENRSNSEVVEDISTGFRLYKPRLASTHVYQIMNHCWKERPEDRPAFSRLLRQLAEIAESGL

EGFR = EGFR (Homo sapiens, UniProt P00533); assay: Enzymatic IC50 assay; type: biochemical
BTK [2] = target: T1, BTK; assay: Dissociation of compound from BTK after guanidine-mediated unfolding; settings: relative to samples without BTK
Aqueous solubility = type: physicochemical
JAK3 = target: T3, JAK3 (Homo sapiens, UniProt P52333); assay: Enzymatic IC50 assay; type: biochemical
T3 sequence (P52333 1-1124): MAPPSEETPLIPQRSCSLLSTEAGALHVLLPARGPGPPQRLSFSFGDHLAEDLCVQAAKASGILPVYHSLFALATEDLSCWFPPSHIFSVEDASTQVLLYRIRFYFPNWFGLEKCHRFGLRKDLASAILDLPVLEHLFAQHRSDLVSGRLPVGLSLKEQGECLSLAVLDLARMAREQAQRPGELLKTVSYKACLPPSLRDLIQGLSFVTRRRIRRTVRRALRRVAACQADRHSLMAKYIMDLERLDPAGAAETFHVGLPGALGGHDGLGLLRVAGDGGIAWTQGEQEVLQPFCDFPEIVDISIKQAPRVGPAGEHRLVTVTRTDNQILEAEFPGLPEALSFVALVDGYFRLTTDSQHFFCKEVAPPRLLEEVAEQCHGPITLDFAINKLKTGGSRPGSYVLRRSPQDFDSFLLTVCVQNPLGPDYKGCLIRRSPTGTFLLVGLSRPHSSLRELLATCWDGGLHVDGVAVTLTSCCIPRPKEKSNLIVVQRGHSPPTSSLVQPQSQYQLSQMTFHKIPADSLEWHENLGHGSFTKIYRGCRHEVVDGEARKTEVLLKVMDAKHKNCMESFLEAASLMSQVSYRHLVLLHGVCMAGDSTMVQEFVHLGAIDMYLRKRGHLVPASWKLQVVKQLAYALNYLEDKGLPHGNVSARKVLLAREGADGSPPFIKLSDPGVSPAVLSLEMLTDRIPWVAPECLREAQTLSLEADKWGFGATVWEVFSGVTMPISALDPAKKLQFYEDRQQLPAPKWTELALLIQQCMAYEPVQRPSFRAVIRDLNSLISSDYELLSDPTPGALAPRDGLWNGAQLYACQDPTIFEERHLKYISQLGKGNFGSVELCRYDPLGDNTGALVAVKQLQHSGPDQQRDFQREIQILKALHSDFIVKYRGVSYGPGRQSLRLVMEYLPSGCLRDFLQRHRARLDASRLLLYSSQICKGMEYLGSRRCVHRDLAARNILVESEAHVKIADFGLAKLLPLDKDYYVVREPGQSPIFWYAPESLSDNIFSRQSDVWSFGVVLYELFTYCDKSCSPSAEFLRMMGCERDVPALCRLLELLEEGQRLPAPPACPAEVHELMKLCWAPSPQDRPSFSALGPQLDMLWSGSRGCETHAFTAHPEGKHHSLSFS

BTK [3] = target: T1, BTK; assay: BTK cell occupancy using Alphascreen; type: cell-based
BTK [4] = target: T1, BTK; assay: Biochemical residence time using fluorescence competition; type: binding; settings: for residence time: read-out: BTK residence time τ

T1 sequence (Q06187 whole entry): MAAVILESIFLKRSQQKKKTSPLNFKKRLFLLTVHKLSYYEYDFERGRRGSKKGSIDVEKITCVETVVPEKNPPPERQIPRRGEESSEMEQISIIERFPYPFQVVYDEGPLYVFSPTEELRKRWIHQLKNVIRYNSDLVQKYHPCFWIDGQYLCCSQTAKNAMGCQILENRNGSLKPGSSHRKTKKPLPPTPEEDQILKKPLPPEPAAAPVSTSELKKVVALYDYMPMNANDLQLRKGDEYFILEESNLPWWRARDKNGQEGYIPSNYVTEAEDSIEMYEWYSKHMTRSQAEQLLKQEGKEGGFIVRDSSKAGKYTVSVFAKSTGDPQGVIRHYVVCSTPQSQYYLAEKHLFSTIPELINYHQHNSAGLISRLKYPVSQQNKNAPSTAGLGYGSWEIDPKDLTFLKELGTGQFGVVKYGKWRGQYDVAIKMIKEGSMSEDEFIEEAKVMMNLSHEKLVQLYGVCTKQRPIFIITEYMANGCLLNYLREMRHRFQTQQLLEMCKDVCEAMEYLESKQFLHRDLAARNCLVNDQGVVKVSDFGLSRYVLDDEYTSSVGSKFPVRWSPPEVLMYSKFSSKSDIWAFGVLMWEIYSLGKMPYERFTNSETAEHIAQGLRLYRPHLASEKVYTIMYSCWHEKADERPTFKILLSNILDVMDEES
Sequence of EGFR (P00533 25-1210, species assumed): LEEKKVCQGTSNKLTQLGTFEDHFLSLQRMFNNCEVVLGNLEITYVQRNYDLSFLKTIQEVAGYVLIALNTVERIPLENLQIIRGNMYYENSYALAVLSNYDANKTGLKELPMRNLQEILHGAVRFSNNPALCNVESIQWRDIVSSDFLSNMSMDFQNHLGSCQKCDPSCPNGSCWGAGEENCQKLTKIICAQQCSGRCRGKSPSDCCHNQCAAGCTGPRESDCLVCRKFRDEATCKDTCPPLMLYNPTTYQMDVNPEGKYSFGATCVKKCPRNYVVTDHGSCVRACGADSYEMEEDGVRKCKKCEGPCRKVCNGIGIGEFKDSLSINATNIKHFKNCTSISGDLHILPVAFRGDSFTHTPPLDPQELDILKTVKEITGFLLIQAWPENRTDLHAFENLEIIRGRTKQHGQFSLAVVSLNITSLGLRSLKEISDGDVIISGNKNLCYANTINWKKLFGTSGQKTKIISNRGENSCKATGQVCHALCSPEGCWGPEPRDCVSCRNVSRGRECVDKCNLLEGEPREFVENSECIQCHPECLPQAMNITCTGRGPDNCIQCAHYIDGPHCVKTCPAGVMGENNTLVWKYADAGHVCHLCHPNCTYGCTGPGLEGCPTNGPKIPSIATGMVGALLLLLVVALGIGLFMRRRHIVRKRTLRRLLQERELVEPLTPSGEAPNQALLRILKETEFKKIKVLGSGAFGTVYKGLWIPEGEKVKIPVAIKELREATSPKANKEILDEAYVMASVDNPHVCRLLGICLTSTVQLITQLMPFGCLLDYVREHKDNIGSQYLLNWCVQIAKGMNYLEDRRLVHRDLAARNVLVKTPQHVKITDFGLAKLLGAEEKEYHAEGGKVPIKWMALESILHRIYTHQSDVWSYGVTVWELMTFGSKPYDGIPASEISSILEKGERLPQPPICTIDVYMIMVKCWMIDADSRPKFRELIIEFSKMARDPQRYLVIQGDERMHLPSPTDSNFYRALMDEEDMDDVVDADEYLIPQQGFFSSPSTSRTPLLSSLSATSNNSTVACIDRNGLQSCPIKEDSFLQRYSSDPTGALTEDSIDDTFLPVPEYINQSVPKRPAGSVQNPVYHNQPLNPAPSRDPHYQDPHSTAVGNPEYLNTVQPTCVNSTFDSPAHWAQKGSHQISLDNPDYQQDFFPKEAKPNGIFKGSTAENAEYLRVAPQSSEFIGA

## CC(C)(C)C=C(C#N)C(=O)N1CCC[C@@H](n2nc(-c3ccc(Oc4ccccc4)cc3)c3c(N)ncnc32)C1 [Compound 3, (R)-2-(3-(4-Amino-3-(4-phenoxyphenyl)-1H-pyrazolo[3,4-d]pyrimidin-1-yl)piperidine-1-carbonyl)-4,4-dimethylpent-2-enenitrile]
BTK [1]; Ramos, read-out: BTK occupancy 20 hrs post-washout
  receptor occupancy at 1 µM: 55%
Oral bioavailability
  Oral bioavailability: poor oral bioavailability
ITK
  Selectivity for BTK over ITK: 60 fold
EGFR
  Selectivity for BTK over EGFR: > 1,000 fold
BTK [2]
  Recovery of compound after guanidine-mediated denaturation of BTK: 88 ± 10%
Aqueous solubility
  Solubility: low solubility
JAK3
  Selectivity for BTK over JAK3: > 1,000 fold

## CC=C(C#N)C(=O)N1CCC[C@@H](n2nc(-c3ccc(Oc4ccccc4)cc3)c3c(N)ncnc32)C1 [Compound 1]
BTK [1]; Ramos B cells, 1 μM, 1 hr, PP-BODIPY
  BTK occupancy 20 hrs post-washout: negligible

## CC(C)(C=C(C#N)C(=O)N1CCC[C@H]1Cn1nc(-c2ccc(Oc3ccccc3)cc2F)c2c(N)ncnc21)N1CCOCC1 [Compound 8]
BTK [3]
  IC50: 5 to 27 nM
BTK [4]
  residence time: 4980 ± 840 min

## C=CC(=O)N1CCC[C@@H]1Cn1nc(-c2ccc(Oc3ccccc3)cc2F)c2c(N)ncnc21 [PP-ir]
BTK [3]
  IC50: 5 to 27 nM
BTK [4]
  residence time: > 12000 min
BTK [4]; room temperature
  BTK residence time τ: no evident dissociation
